From patent US20140357688A1, “METHOD FOR INHIBITING EZH2 EXPRESSION IN BREAST CANCER CELLS” (Yung Shin Pharm. Ind. Co., Ltd., priority 2013, published 2014)
Peptide text beside a SMILES is read from it. * marks the point of attachment. Cbz = O=C(OCc1ccccc1)*

What was measured:
Type in all cases: cell-based, human
MDA-MB-468 = assay: MTT cell viability assay; settings: for effect of inhibitor on YC-1-induced inhibition of cell viability: inhibitor pretreatment, then 3 μM YC-1 for 6 h
Experimental: (A) Cells were treated with indicated concentration of YC-1 for 6, 24, and 48 h. Cell viability was determined by MTT method. (B) MDA-MB-468 cells were treated with 3 μM YC-1 for 0, 6, and 12 h, and then stained with fluorescence diacetate (FDA) and propidium iodide (PI). Cell morphology was assessed by fluorescence microscopy with magnification ×20 (upper 3 rows) or ×40 (lowest row). (C) MDA-MB-468 cells were treated with 3 μM YC-1 for 24 h, cells were lysed and subjected to western blot analysis described in Materials and Methods. β-actin is a loading control. Blots were representative of results from three independent experiments. (D) Cells were treated with vehicle (DMSO, as control) or 3 μM YC-1 for 6 h. The cell cycles were analyzed by flow cytometry. (E) Cells were treated with indicated concentration of YC-1 and then performed with clonogenic assay.
Human breast cancer cells, MDA-MB-468, MDA-MB-157, MDA-MB-231, MDA-MB-453, and Hs578T, and immortalized mammary epithelial cell lines, 184A1 and MCF-10A, were obtained from American Type Culture Collection (Manassas, Va., USA). MDA-MB-468, MDA-MB-157, MDA-MB-231, and MDA-MB-453 were cultured in DMEM/F12 medium supplemented with 10% FBS, 100 U/ml penicillin, and 100 μg/ml streptomycin. Hs578T was cultured in RPMI 1640 medium containing 10% FBS, 2 mM L-glutamine, 100 U/ml penicillin, and 100 μg/ml streptomycin. 184A1 and MCF-10A were cultured in DMEM/F12 medium supplemented with 5% horse serum, 0.5 μg/ml hydrocortisone, 10 μg/ml insulin, 20 ng/ml epidermal growth factor, 0.1 μg/ml cholera enterotoxin, 2 mM L-glutamine, 100 U/ml penicillin, and 100 μg/ml streptomycin. All cells were maintained in a humidified incubator containing 5% CO2. For hypoxia treatment, cells were incubated in a chamber flushed with 1% 02, 5% CO2, and 94% N2 at 37° C.
Cell viability was measured by 3-(4,5-Dimethyl-2-thiazolyl)2,5-diphenyl-2H-tetrazolium bromide (MTT) assay.

EZH2 [1] = assay: Western blot of EZH2 protein expression in MDA-MB-468 cells; settings: for effect of inhibitor on YC-1-induced EZH2 inhibition: inhibitor pretreatment, then 3 μM YC-1 for 6 h
Experimental: Cells were harvested and performed with western blotting analysis. […] The levels of protein expression were quantitated and shown under blots. (C) Cells were transfected with EZH2 shRNA for 0, 1, 2, 3, and 4 days and collected for determination of cell viability (left) and protein expression (right). (D)(E) After 4 days of EZH2 knockdown, cells were incubated with 3 μM YC-1 for 4 h and detected cell viability (D) and protein contents (E). (F) Tumor specimens were isolated and protein was extracted for western blot analysis.
Cells were lysed in PBS containing proteinase inhibitor and phosphatase inhibitors and sonication. Protein concentration was measured using the Bio-Rad protein assay kit (Bio-Rad Laboratories, Hercules, Calif., USA). Lysate protein was separated by electrophoresis of SDS-PAGE and transferred to Immobilon P membrane (EMD Millipore). The membranes were incubated with appropriate primary antibodies and horseradish peroxidase-conjugated secondary antibodies (EMD Millipore). The signaling was visualized using Chemiluminescence substrate kit (EMD Millipore) and collected by the Luminesence image analyzer, LAS4000 (Fuji Photo Film Co., Tokyo, Japan). The band intensities were analyzed and quantified by the Multi Gauge software (Fuji Photo Film).

c-Cbl = assay: Western blot of c-Cbl phosphorylation and expression; settings: pretreatment 1 h, then 3 μM YC-1 for 6 h
Experimental: (A) c-Cbl knockdown MDA-MB-468 cells were treated with 3 μM YC-1 for 4 h. Cell were harvested for detection of protein expression. (B) Cells were treated with 3 μM YC-1 for indicated time. Cells were collected and c-Cbl phosphorylation was detected. […] (D) Cells were pretreated with MG-132 and followed by 3 μM YC-1 induction for indicated time. Cells were harvested and lysed for immunoprecipitation assay. The association between c-Cbl and EZH2 were determined by western blotting analysis and probed with anti-EZH2 or anti-c-Cbl antibody. Membranes were stripped and reprobed with anti-c-Cbl or anti-EZH2 antibody to check the input. […] Then cells were collected and lysate protein was subjected for the detection of the c-Cbl-EZH2 complexes. Cells were lysed in PBS containing proteinase inhibitor and phosphatase inhibitors and sonication. Protein concentration was measured using the Bio-Rad protein assay kit (Bio-Rad Laboratories, Hercules, Calif., USA). Lysate protein was separated by electrophoresis of SDS-PAGE and transferred to Immobilon P membrane (EMD Millipore). The membranes were incubated with appropriate primary antibodies and horseradish peroxidase-conjugated secondary antibodies (EMD Millipore). The signaling was visualized using Chemiluminescence substrate kit (EMD Millipore) and collected by the Luminesence image analyzer, LAS4000 (Fuji Photo Film Co., Tokyo, Japan). The band intensities were analyzed and quantified by the Multi Gauge software (Fuji Photo Film).

EZH2 [2] = assay: EZH2 ubiquitination assay; settings: inhibitor pretreatment, then 3 μM YC-1
Experimental: (A) Cells were pretreated with cyclohexamide (30 μM) for 1 h and followed by induction with vehicle (DMSO) or YC-1 (3 μM) for indicated time. Cells were harvested for detection of protein expression. (B)(C) Cells were incubated with 3 μM YC-1 for 6 h in the presence of vehicle, 3 μM MG-132 or 30 μM NH4Cl. Cells were harvested for detection of protein expression (B) or cell viability assay (C). The levels of protein expression were quantitated and shown under blots. (D) After treatment of 3 μM YC-1 for indicated time, cells were harvested and lysed for immunoprecipitation and western blot analysis described in Materials and Methods.
Cells were lysed with MLB buffer (25 mM HEPES, pH 7.5, 150 mM NaCl, 1% Igepal CA-630, 10 mM MgCl2, 1 mM EDTA, 2% glycerol, 1 mM Na3VO4, 1 mM NaF, 1 mM PMSF, 10 μg/ml of leupeptin, aprotinin, and pepstatin A). After sonication, cell lysates were centrifugated at 12,000×g for 10 min at 4° C. Supernatants were incubated with anti-EZH2 antibody (BD Biosciences) and protein A Sepharose beads (GE Health Care) overnight at 4° C. After washing with MLB buffer, precipitated proteins were boiled in 1× Laemmli sample buffer and then separated with SDS-PAGE. The ubiquitination levels of EZH2 were recognized by using anti-Ubiquitn monoclonal antibody.

EZH2-c-Cbl-ERK = assay: Co-immunoprecipitation of c-Cbl and EZH2; settings: PD98059 10 μM with MG-132, then 2 h 3 μM YC-1
Experimental: (A) c-Cbl knockdown MDA-MB-468 cells were treated with 3 μM YC-1 for 4 h. Cell were harvested for detection of protein expression. (B) Cells were treated with 3 μM YC-1 for indicated time. Cells were collected and c-Cbl phosphorylation was detected. (C) Cells were pretreated with MG-132 (3 μM) or NH4Cl (30 μM) for 1 h followed by 3 μM YC-1 induction for 6 h. (D) Cells were pretreated with MG-132 and followed by 3 μM YC-1 induction for indicated time. Cells were harvested and lysed for immunoprecipitation assay. The association between c-Cbl and EZH2 were determined by western blotting analysis and probed with anti-EZH2 or anti-c-Cbl antibody. Membranes were stripped and reprobed with anti-c-Cbl or anti-EZH2 antibody to check the input. (E) Cells were preincubated with or without PD98059 (10 μM) in the presence of MG-132 for 1 h prior to 2 h-treatment of 3 μM YC-1. Then cells were collected and lysate protein was subjected for the detection of the c-Cbl-EZH2 complexes.
Cells were lysed with RIPA buffer (50 mM Tris-C1, pH 7.5, 1% Igepal CA-630, 150 mM NaCl, 1 mM EDTA, 1 mM Na3VO4, 1 mM NaF, 1 mM PMSF, 10 μg/ml of leupeptin, aprotinin, and pepstatin A) for 30 min at 4° C. One milligram of cell lysate was incubated with anti-EZH2 or anti-c-Cbl antibody and protein A-Sepharose beads, then gently rotated at 4° C. overnight. […]

SMILES | effect of inhibitor on YC-1-induced inhibition of cell viability (MDA-MB-468) | effect of inhibitor on YC-1-induced EZH2 inhibition (EZH2 [1]) | effect of inhibitor on YC-1-induced EZH2 ubiquitination (EZH2 [2]) | also measured
CC[C@H](CO)Nc1nc(NCc2ccccc2)c2ncn(C(C)C)c2n1 [roscovitine] | failed to modulate | failed to modulate | – | –
CC(C)=CCC/C(C)=C/CC/C(C)=C/CSc1ccccc1C(=O)O [farnyesyl thiosalicylic acid] | – | had no effect | – | –
Nc1nccc2c1ncn2[C@@H]1C=C(CO)[C@@H](O)[C@H]1O [DZNep, 3-deazaneplanocin A] | – | – | – | activation of apoptosis / cell viability (MDA-MB-468; DZNep, 24 h, ten folds of concentration higher than YC-1): failed to inhibit EZH2 and activate apoptosis; EZH2 inhibition (EZH2 [1]; DZNep 3, 10, 30 μM, 24 h, ten folds of concentration higher than YC-1): failed to inhibit EZH2
Cl.N [NH4Cl, reference compound] | – | not | – | effect of inhibitor on YC-1-induced inhibition of c-Cbl (c-Cbl): not
COc1cc2ncnc(Nc3cccc(Cl)c3)c2cc1OC [AG1478] | – | not affected | not | –
COC(=O)[C@@]1(OC)C[C@H]2O[C@]1(C)n1c3ccccc3c3c4c(c5c6ccccc6n2c5c31)C(=O)N(C)C4 [KT5823] | failed to have effects | failed to have effects | – | –
CNC(=O)c1cc(Oc2ccc(NC(=O)Nc3ccc(Cl)c(C(F)(F)F)c3)cc2)ccn1 [Bay-43-9006] | attenuated | attenuated | significantly suppressed | –
O=c1onc2cnc3ccccc3n12 [ODQ] | failed to have effects | failed to have effects | – | –
O=c1c(-c2ccc(O)cc2)coc2cc(O)cc(O)c12 [genistein] | attenuated | attenuated | significantly suppressed | –
CCCC[C@@H](C)/C=C(C)/C=C(\C)C(=O)NC1=C[C@@](O)(/C=C/C=C/C=C/C(=O)NC2=C(O)CCC2=O)[C@@H]2O[C@@H]2C1=O [manumycin A] | – | failed to influent | – | –
COc1cccc(-c2cc(=O)c3ccccc3o2)c1N [PD98059] | almost completely abolished | almost completely abolished | could be blocked | effect of inhibitor on EZH2-c-Cbl-ERK complex (EZH2-c-Cbl-ERK): could be disrupted
O=c1onc2n1-c1cc(Br)ccc1OC2 [NS2028] | failed to have effects | failed to have effects | – | –
COc1cc2ncnc(Nc3ccc(Oc4ccccc4)cc3)c2cc1OC [SrcI] | attenuated | attenuated | significantly suppressed | –
CC(C)C[C@@H](C=O)NC(=O)[C@H](CC(C)C)NC(=O)[C@H](CC(C)C)NC(=O)OCc1ccccc1 [MG-132] (Cbz-Leu-Leu-Leu-aldehyde) | reversed the YC-1-induced inhibition of cell viability | significantly prevented EZH2 degradation | – | effect of inhibitor on YC-1-induced inhibition of c-Cbl (c-Cbl): could be reversed
